Activity calls are given as the source filed them. The rule behind the calls is not given here.
What was measured:
MC-38 [1] = assay: Antitumor activity against mouse MC38 cells implanted in C57BL/6J mouse assessed as reduction in tumor growth on right flank at 5 ug,IT administrated in right flank on day 0, 3 and 7 measured after 15 days; assay type: functional, cell-based; settings: dose 5.0 µg, time 15.0 day
MC-38 [2] = assay: Antitumor activity against mouse MC38 cells implanted in C57BL/6J mouse assessed as reduction in tumor growth on right flank at 20 ug,IT administrated in right flank on day 0, 3 and 7 measured after 15 days; assay type: functional, cell-based; settings: dose 20.0 µg, time 15.0 day
Mus musculus [3] = assay: Antitumor immunity in mouse MC38 cells implanted in C57BL/6J mouse assessed as increase in IFN-beta level in injected tumor at 5 to 20 ug,IT administrated in right flank on day 0 measured after 4 hrs by ELISA; assay type: functional, organism-based; settings: MC-38, dose 5-20 µg
Mus musculus [4] = assay: Antitumor immunity in mouse MC38 cells implanted in C57BL/6J mouse assessed as increase in IL-6 level in injected tumor at 5 to 20 ug,IT administrated in right flank on day 0 measured after 4 hrs by mesoscale assay; assay type: functional, organism-based; settings: MC-38, dose 5-20 µg
Mus musculus [5] = assay: Antitumor immunity in mouse MC38 cells implanted in C57BL/6J mouse assessed as increase in TNF-alpha level in injected tumor at 5 to 20 ug,IT administrated in right flank on day 0 measured after 4 hrs by mesoscale assay; assay type: functional, organism-based; settings: MC-38, dose 5-20 µg
MC-38 [6] = assay: Antitumor activity against mouse MC38 cells implanted in C57BL/6J mouse assessed as reduction in tumor growth at 4 ug,IT administered for day 0,3,7 followed by anti-mouse PD-1 antibody Mdx400 incubated for 28 days measured twice a week; assay type: functional, cell-based; settings: dose 4.0 µg, time 28.0 day
B16-F10 = assay: Antitumor activity against mouse B16-F10 cells implanted in C57BL/6J mouse assessed as reduction in tumor growth at 4 ug,IT administered for day 0,3,7 followed by anti-mouse PD-1 antibody Mdx400 incubated for 28 days measured twice a week; assay type: functional; settings: dose 4.0 µg, time 28.0 day
[7] = Drug uptake in plasma of C57BL/6J mouse implanted with mouse MC38 cells assessed as drug concentration at 20 ug,IT administrated on right flank on day 0 measured upto 1 hr by LC-MS analysis; assay type: ADME, cell-free, MC-38; settings: in vivo, other, dose 20 µg
[8] = Drug uptake in plasma of C57BL/6J mouse implanted with mouse MC38 cells assessed as drug concentration at 20 ug,IT administrated on left flank on day 0 measured upto 1 hr by LC-MS analysis; assay type: ADME, cell-free, MC-38; settings: in vivo, other, dose 20 µg
[9] = Drug uptake in tumor of C57BL/6J mouse implanted with mouse MC38 cells assessed as drug concentration at 20 ug,IT administrated on right flank on day 0 measured upto 1 hr by LC-MS analysis; assay type: ADME, tissue-based, Neoplasm, MC-38; settings: in vivo, other, dose 20 µg
[10] = Drug uptake in tumor of C57BL/6J mouse implanted with mouse MC38 cells assessed as drug concentration at 20 ug,IT administrated on left flank on day 0 measured upto 1 hr by LC-MS analysis; assay type: ADME, tissue-based, Neoplasm, MC-38; settings: in vivo, other, dose 20 µg
[11] = biological target: Stimulator of interferon genes protein (Mus musculus, UniProt Q3TBT3); settings: bmdc
Sequence of Stimulator of interferon genes protein (Q3TBT3 whole entry, looked up, change not shown): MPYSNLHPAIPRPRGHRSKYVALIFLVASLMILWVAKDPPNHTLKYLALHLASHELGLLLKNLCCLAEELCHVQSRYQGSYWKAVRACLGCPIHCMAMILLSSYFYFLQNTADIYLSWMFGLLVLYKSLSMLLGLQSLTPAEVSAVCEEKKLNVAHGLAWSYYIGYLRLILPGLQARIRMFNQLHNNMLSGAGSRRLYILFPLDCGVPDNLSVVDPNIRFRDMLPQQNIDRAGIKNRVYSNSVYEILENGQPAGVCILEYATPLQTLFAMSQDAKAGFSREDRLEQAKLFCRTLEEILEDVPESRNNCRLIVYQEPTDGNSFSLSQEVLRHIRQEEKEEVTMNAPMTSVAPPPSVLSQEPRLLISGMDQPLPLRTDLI

Mus musculus [12] = assay: Antitumor immunity in mouse MC38 cells implanted in C57BL/6J mouse assessed as increase in IL-6 level in injected tumor at 100 to 500 ug,IT administrated in right flank on day 0 measured after 4 hrs by mesoscale assay; assay type: functional, organism-based; settings: MC-38, dose 100-500 µg
Mus musculus [13] = assay: Antitumor immunity in mouse MC38 cells implanted in C57BL/6J mouse assessed as increase in IFN-beta level in injected tumor at 100 to 500 ug,IT administrated in right flank on day 0 measured after 4 hrs by ELISA; assay type: functional, organism-based; settings: MC-38, dose 100-500 µg
Mus musculus [14] = assay: Antitumor immunity in mouse MC38 cells implanted in C57BL/6J mouse assessed as increase in TNF-alpha level in injected tumor at 100 to 500 ug,IT administrated in right flank on day 0 measured after 4 hrs by mesoscale assay; assay type: functional, organism-based; settings: MC-38, dose 100-500 µg

Nc1nc(=O)c2ncn([C@@H]3O[C@@H]4CO[P@@](=O)(S)O[C@H]5[C@H](F)[C@H](n6cnc7c(N)ncnc76)O[C@@H]5CO[P@@](=O)(S)O[C@@H]3[C@@H]4F)c2[nH]1
Activity (MC-38 [1]): Active | Activity (MC-38 [2]): Active | Activity (Mus musculus [3]): Active | Activity (Mus musculus [4]): Active | Activity (Mus musculus [5]): Active | Activity (MC-38 [6]): Active | Activity (B16-F10): Active

N.N.Nc1nc2c(ncn2[C@@H]2O[C@@H]3CO[P@@](=O)(S)O[C@H]4[C@H](F)[C@H](n5cnc6c(N)ncnc65)O[C@@H]4CO[P@@](=O)(S)O[C@@H]2[C@@H]3F)c(=O)[nH]1
Drug uptake [7]: Active | Drug uptake [8]: Active | Drug uptake [9]: Active | Drug uptake [10]: Active

Nc1nc2c(ncn2[C@@H]2O[C@@H]3COP(=O)(O)O[C@H]4[C@H]5OC[C@]4(COP(=O)(O)O[C@@H]2C3)O[C@H]5n2cnc3c(N)ncnc32)c(=O)[nH]1
EC50 [11]: > 100 µM

Nc1nc2c(ncn2[C@@H]2O[C@@H]3CO[P@@](=O)(S)O[C@H]4[C@H]5OC[C@]4(CO[P@@](=O)(S)O[C@@H]2[C@@H]3O)O[C@H]5n2cnc3c(N)ncnc32)c(=O)[nH]1
EC50 [11]: 5.38 µM

Nc1nc2c(ncn2[C@@H]2O[C@@H]3CO[P@@](=O)(S)O[C@H]4C[C@H](n5cnc6c(N)ncnc65)O[C@@H]4CO[P@@](=O)(S)O[C@@H]2[C@@H]3F)c(=O)[nH]1
EC50 [11]: 3.21 µM

Nc1nc2c(ncn2[C@@H]2O[C@@H]3CO[P@@](=O)(S)O[C@H]4[C@@H](O)[C@H](n5cnc6c(N)ncnc65)O[C@@H]4CO[P@@](=O)(S)O[C@@H]2C3)c(=O)[nH]1
EC50 [11]: 6.23 µM

Nc1nc2c(ncn2[C@@H]2O[C@@H]3COP(=O)(O)O[C@H]4[C@@H](O)[C@H](n5cnc6c(N)ncnc65)O[C@@H]4COP(=O)(O)O[C@@H]2[C@@H]3O)c(=O)[nH]1
Activity (Mus musculus [12]): Active | Activity (Mus musculus [13]): Active | Activity (Mus musculus [14]): Active

Nc1nc2c(ncn2[C@@H]2O[C@@H]3CO[P@@](=O)(S)O[C@H]4[C@@H](F)[C@H](n5cnc6c(N)ncnc65)O[C@@H]4CO[P@@](=O)(S)O[C@@H]2[C@@H]3O)c(=O)[nH]1
EC50 [11]: 1.55 µM

From ChEMBL document CHEMBL5154814, “Discovery of MK-1454: A Potent Cyclic Dinucleotide Stimulator of Interferon Genes Agonist for the Treatment of Cancer” (J Med Chem, 2022)
